Experimental data reported in publication PMC6424229, “^68Ga-FAPI PET/CT: Biodistribution and Preliminary Dosimetry Estimate of 2 DOTA-Containing FAP-Targeting Agents in Patients with Various Cancers” (Journal of Nuclear Medicine, 2019).
Several values for one entry are separate records, joined by “and”; a condition that tells them apart may be missing. Identical values can stand only once. Like-named read-outs stand apart in the source and are kept apart here.

Experiments:
[1] = literature value, cited from earlier work
[2] = PET/CT normal-organ / background uptake (SUVmax) 1 h after injection; settings: for Unspecific uptake in locations of wound healing after surgical intervention, average SUVmax: interindividual comparison, 25 patients per tracer, not statistically significant
[3] = tested on: tumor lesions; assay: Serial PET/CT 10 min, 1 h and 3 h after injection (tracer kinetics, tumor retention); type: in vivo, patients; settings: mean; one patient with metastasized breast cancer per tracer
Description: (§1) To approximate the dosimetry, imaging was performed 10 min, 1 h, and 3 h after injection of 306 MBq of ^68Ga-FAPI-2 in one patient and 258 MBq of ^68Ga-FAPI-4 in another patient.

[4] = tested on: tumor lesions; assay: PET/CT tumor uptake (SUVmax) 1 h after injection; settings: not statistically significant; for Uptake by tumors, average SUVmax: interindividual comparison, 25 patients per tracer
[5] = Radiation dosimetry estimate from serial PET/CT (QDOSE; OLINDA 1.1, IDAC-Dose 1.0/2.1); type: in vivo, patients; settings: for Radiation exposure (effective dose) per 100 MBq: PET; for Radiation exposure (effective dose) per 100 MBq / Effective dose / Dosimetry estimate (OLINDA), Red marrow / Dosimetry estimate (OLINDA), Adrenals / Dosimetry estimate (OLINDA), Brain / Dosimetry estimate (OLINDA), Breasts / Dosimetry estimate (OLINDA), Gallbladder wall / Dosimetry estimate (OLINDA), Heart wall / Dosimetry estimate (OLINDA), Kidneys / Dosimetry estimate (OLINDA), Liver / Dosimetry estimate (OLINDA), Lower large intestine wall / Dosimetry estimate (OLINDA), Lungs / Dosimetry estimate (OLINDA), Muscle / Dosimetry estimate (OLINDA), Osteogenic cells / Dosimetry estimate (OLINDA), Ovaries / Dosimetry estimate (OLINDA), Pancreas / Dosimetry estimate (OLINDA), Skin / Dosimetry estimate (OLINDA), Small intestine / Dosimetry estimate (OLINDA), Spleen / Dosimetry estimate (OLINDA), Stomach wall / Dosimetry estimate (OLINDA), Testes / Dosimetry estimate (OLINDA), Thymus / Dosimetry estimate (OLINDA), Thyroid / Dosimetry estimate (OLINDA), Upper large intestine wall / Dosimetry estimate (OLINDA), Urinary bladder wall / Dosimetry estimate (OLINDA), Uterus / Dosimetry estimate (OLINDA), Total body: one patient per tracer; for Equivalent dose / radiation dose of one examination: examination with 200 MBq of 68Ga; for Dosimetry estimate (OLINDA), Red marrow: approximated from PET volume of interest in a lumbar vertebra; for Dosimetry estimate (OLINDA), Red marrow / Dosimetry estimate (OLINDA), Adrenals / Dosimetry estimate (OLINDA), Brain / Dosimetry estimate (OLINDA), Breasts / Dosimetry estimate (OLINDA), Gallbladder wall / Dosimetry estimate (OLINDA), Heart wall / Dosimetry estimate (OLINDA), Kidneys / Dosimetry estimate (OLINDA), Liver / Dosimetry estimate (OLINDA), Lower large intestine wall / Dosimetry estimate (OLINDA), Lungs / Dosimetry estimate (OLINDA), Muscle / Dosimetry estimate (OLINDA), Osteogenic cells / Dosimetry estimate (OLINDA), Ovaries / Dosimetry estimate (OLINDA), Pancreas / Dosimetry estimate (OLINDA), Skin / Dosimetry estimate (OLINDA), Small intestine / Dosimetry estimate (OLINDA), Spleen / Dosimetry estimate (OLINDA), Stomach wall / Dosimetry estimate (OLINDA), Testes / Dosimetry estimate (OLINDA), Thymus / Dosimetry estimate (OLINDA), Thyroid / Dosimetry estimate (OLINDA), Upper large intestine wall / Dosimetry estimate (OLINDA), Urinary bladder wall / Dosimetry estimate (OLINDA), Uterus / Dosimetry estimate (OLINDA), Total body: unit not given; for Dosimetry estimate (OLINDA), Adrenals / Dosimetry estimate (OLINDA), Brain / Dosimetry estimate (OLINDA), Breasts / Dosimetry estimate (OLINDA), Gallbladder wall / Dosimetry estimate (OLINDA), Heart wall / Dosimetry estimate (OLINDA), Kidneys / Dosimetry estimate (OLINDA), Liver / Dosimetry estimate (OLINDA), Lower large intestine wall / Dosimetry estimate (OLINDA), Lungs / Dosimetry estimate (OLINDA), Muscle / Dosimetry estimate (OLINDA), Osteogenic cells / Dosimetry estimate (OLINDA), Ovaries / Dosimetry estimate (OLINDA), Pancreas / Dosimetry estimate (OLINDA), Skin / Dosimetry estimate (OLINDA), Small intestine / Dosimetry estimate (OLINDA), Spleen / Dosimetry estimate (OLINDA), Stomach wall / Dosimetry estimate (OLINDA), Testes / Dosimetry estimate (OLINDA), Thymus / Dosimetry estimate (OLINDA), Thyroid / Dosimetry estimate (OLINDA), Upper large intestine wall / Dosimetry estimate (OLINDA), Urinary bladder wall / Dosimetry estimate (OLINDA), Uterus: organ dose
Description: as §1
The dosimetry analysis was performed using the QDOSE dosimetry software suite (ABX-CRO). Kidneys, liver, spleen, urinary bladder content, red marrow, heart content, and remainder of body were included as source organs. Because of blood sampling failure due to poor vein conditions, the red marrow dose was approximated using the activity segmented with volume-of-interest technique in the PET scans. The non–tumor-affected lumbar vertebrae 5 (^68Ga-FAPI-2) and 4 (^68Ga-FAPI-4) were assumed to contain 2.46% of the total red marrow ([6]). Using QDOSE, all CT images were coregistered using an automatic deformable coregistration. PET images were coupled to the CT images of the corresponding imaging session. The PET images were transformed according to the transformation matrix of the coupled CT. The volumes of interest of all segmented source organs were drawn in the examination that had the best organ delineation and then were copied onto all other time points to calculate the time–activity curves. Monoexponential curve fitting was then applied to all organ time–activity curves. The cumulative activity Ã between time 0 and the first measured time point was calculated assuming a linear increase from 0 to the first measured activity. The Ã between the first measured time point and the last measured time point was integrated numerically using trapezoidal approximation. The Ã from the last measured time point to infinity was integrated using the fitted function. The total-body Ã was based on the injected activity and the calculated effective half-life in a total-field-of-view volume of interest, assuming that the limbs behave similar to the torso. This approach was chosen because some parts of the body were not in the field of view of the PET/CT device. The Ã values of total body and red marrow were added as organs into QDOSE. The Ã of the remainder of the body was then automatically calculated by subtracting all source-organ Ã values from the total-body Ã. All source-organ residence times were calculated by dividing the Ã by the injected activity. Absorbed and effective dose calculations were performed using the International Commission on Radiological Protection (ICRP)–endorsed IDAC-Dose 2.1 and IDAC-Dose 1.0 ([7]), which are integrated in QDOSE. In addition, the residence times of all included source organs and remainder of body were exported as an OLINDA case file for dose calculation in OLINDA 1.1 ([8]). Both IDAC-Dose 1.0 and OLINDA 1.1 are based on the Cristy–Eckerman stylized phantom series ([9]). IDAC-Dose 2.1 is based on the ICRP adult reference computational phantoms ([10]) and the ICRP-specific absorbed fractions ([11]). Organ masses were not adapted to individual subject organ masses.

[6] = intraindividual comparison of 6 patients

SMILES | Unspecific uptake in locations of wound healing after surgical intervention, average SUVmax [2] | Decline of tumor uptake (washout) from 1 h to 3 h after injection [3] | Uptake by tumors, average SUVmax [4] | Radiation exposure (effective dose) per 100 MBq [5] | Effective dose ([5]; calculated with IDAC1/ICRP60) | Effective dose ([5]; calculated with IDAC2/ICRP103) | Effective dose ([5]; calculated with OLINDA) | Equivalent dose / radiation dose of one examination [5] | Dosimetry estimate (OLINDA), Red marrow [5] | Dosimetry estimate (OLINDA), Adrenals [5] | Dosimetry estimate (OLINDA), Brain [5] | Dosimetry estimate (OLINDA), Breasts [5] | Dosimetry estimate (OLINDA), Gallbladder wall [5] | Dosimetry estimate (OLINDA), Heart wall [5] | Dosimetry estimate (OLINDA), Kidneys [5] | Dosimetry estimate (OLINDA), Liver [5] | Dosimetry estimate (OLINDA), Lower large intestine wall [5] | Dosimetry estimate (OLINDA), Lungs [5] | Dosimetry estimate (OLINDA), Muscle [5] | Dosimetry estimate (OLINDA), Osteogenic cells [5] | further results
O=C([O-])CN1CCN(CC(=O)[O-])CCN(CC(=O)NC[C@H]2CC[C@H](C(=O)N[C@@H](Cc3ccc4ccccc4c3)C(=O)NCCCC[C@H](NC(=O)N[C@@H](CCC(=O)O)C(=O)O)C(=O)O)CC2)CCN(CC(=O)[O-])CC1.[68Ga+3] [^68Ga-PSMA-617] |  |  |  |  |  |  |  |  |  |  |  |  |  |  |  |  |  |  |  |  | Effective dose ([1]; no reference of its own printed): 2.1 mSv/100 MBq
N#C[C@@H]1CC(F)(F)CN1C(=O)CNC(=O)c1ccnc2ccc(OCCCN3CCN(C(=O)CN4CCN(CC(=O)O)CCN(CC(=O)O)CCN(CC(=O)O)CC4)CC3)cc12 [^68Ga-FAPI-4, metal not drawn] | 6.76 | 25% | 10.07 | 1.8 mSv/100 MBq and 1.4–1.8 mSv/100 MBq | 1.66E−2 mSv/MBq | 1.35E−2 mSv/MBq | 1.64E−2 mSv/MBq and 1.64E−02 mSv/MBq | 3–4 mSv | 2.08E−02 | 1.12E−02 | 9.11E−03 | 8.88E−03 | 1.13E−02 | 2.02E−02 | 4.43E−02 | 1.46E−02 | 1.17E−02 | 9.89E−03 | 9.91E−03 | 2.16E−02 | Dosimetry estimate (OLINDA), Ovaries [5]: 1.19E−02; Dosimetry estimate (OLINDA), Pancreas [5]: 1.13E−02; Dosimetry estimate (OLINDA), Skin [5]: 8.63E−03; Dosimetry estimate (OLINDA), Small intestine [5]: 1.13E−02; Dosimetry estimate (OLINDA), Spleen [5]: 1.05E−02; Dosimetry estimate (OLINDA), Stomach wall [5]: 1.06E−02; Dosimetry estimate (OLINDA), Testes [5]: 1.01E−02; Dosimetry estimate (OLINDA), Thymus [5]: 1.01E−02; Dosimetry estimate (OLINDA), Thyroid [5]: 9.82E−03; Dosimetry estimate (OLINDA), Upper large intestine wall [5]: 1.11E−02; Dosimetry estimate (OLINDA), Urinary bladder wall [5]: 9.91E−02; Dosimetry estimate (OLINDA), Uterus [5]: 1.30E−02; Dosimetry estimate (OLINDA), Total body [5]: 1.09E−02
N#C[C@@H]1CCCN1C(=O)CNC(=O)c1ccnc2ccc(OCCCN3CCN(C(=O)CN4CCN(CC(=O)O)CCN(CC(=O)O)CCN(CC(=O)O)CC4)CC3)cc12 [^68Ga-FAPI-2, metal not drawn] | 7.07 | 75% | 8.37 | 1.4 mSv/100 MBq and 1.4–1.8 mSv/100 MBq | 1.82E−2 mSv/MBq | 1.79E−2 mSv/MBq | 1.80E−2 mSv/MBq and 1.80E−02 mSv/MBq | 3–4 mSv | 3.28E−02 | 1.23E−02 | 9.54E−03 | 9.58E−03 | 1.19E−02 | 4.73E−02 | 4.45E−02 | 1.51E−02 | 1.23E−02 | 1.09E−02 | 1.04E−02 | 2.94E−02 | Background uptake in brain, average SUVmax [2, 6]: 0.32; Background uptake in liver, average SUVmax [2, 6]: 1.69; Background uptake in oral/pharyngeal mucosa, average SUVmax [2, 6]: 2.57; Uptake in all other organs compared with 18F-FDG ([2]; organs other than brain, liver, oral/pharyngeal mucosa, 6 patients): no significant difference; Tumor uptake, average SUVmax [4, 6]: 7.37; Dosimetry estimate (OLINDA), Ovaries [5]: 1.24E−02; Dosimetry estimate (OLINDA), Pancreas [5]: 1.23E−02; Dosimetry estimate (OLINDA), Skin [5]: 9.01E−03; Dosimetry estimate (OLINDA), Small intestine [5]: 1.19E−02; Dosimetry estimate (OLINDA), Spleen [5]: 2.62E−02; Dosimetry estimate (OLINDA), Stomach wall [5]: 1.13E−02; Dosimetry estimate (OLINDA), Testes [5]: 1.04E−02; Dosimetry estimate (OLINDA), Thymus [5]: 1.15E−02; Dosimetry estimate (OLINDA), Thyroid [5]: 1.03E−02; Dosimetry estimate (OLINDA), Upper large intestine wall [5]: 1.17E−02; Dosimetry estimate (OLINDA), Urinary bladder wall [5]: 8.89E−02; Dosimetry estimate (OLINDA), Uterus [5]: 1.33E−02; Dosimetry estimate (OLINDA), Total body [5]: 1.19E−02
O=C([O-])CN(CCN(CC(=O)[O-])Cc1cc(CCC(=O)NCCCCCC(=O)NCCCC[C@H](NC(=O)N[C@@H](CCC(=O)O)C(=O)O)C(=O)O)ccc1[O-])Cc1cc(CCC(=O)O)ccc1[O-].[68Ga+3].[OH3+] [^68Ga-PSMA-11] |  |  |  |  |  |  |  |  |  |  |  |  |  |  |  |  |  |  |  |  | Effective dose [1]: 1.6–2.4 mSv/100 MBq
